Columns and labels:
[1] = test system: Scirpus juncoides; assay: Submersion test, treatment 3 days after transplantation: herbicidal effect; assay type: in vivo; conditions: rated 30 days after application
[2] = test system: paddy rice; assay: Submersion test, treatment 3 days after transplantation: injury to paddy rice; assay type: in vivo; design: key: 0: No injury; 1: Substantially no injury; 2: Slight injury; 3: Some injury; 4: Remarkable injury; 5: Almost all crops dead; conditions: rated 30 days after application
[3] = test system: Scirpus juncoides; assay: Submersion test, treatment 10 days after transplantation: herbicidal effect; assay type: in vivo; conditions: rated 30 days after application

For `COC(=O)C(C(=O)OC)C1=C(C(=O)c2ccc3c(c2Cl)CC(SC)S3(=O)=O)C(=O)CCC1` (stereo not drawn) [Compound No. 40, 4-chloro-2-methylthio-5-[3-(bis-methoxycarbonyl)methyl-1-oxo-2-cyclohexen-2-yl]carbonyl-2,3-dihydrobenzothiophene 1,1-dioxide], the “Herbicidal effect Scirpus juncoides” value ([1]; application rate 100 g/ha) was 4 (70% or higher but less than 90%), the “Herbicidal effect Scirpus juncoides” value ([1]; application rate 200 g/ha) was 5 (90% or higher (almost completely dead)) and the Injury paddy rice ([2]; application rate 100 g/ha) was 0. For the same molecule, the Injury paddy rice ([2]; application rate 200 g/ha) was 0, the “Herbicidal effect Scirpus juncoides” value ([3]; application rate 100 g/ha) was 4 (70% or higher but less than 90%) and the “Herbicidal effect Scirpus juncoides” value ([3]; application rate 200 g/ha) was 5 (90% or higher (almost completely dead)). The melting point was 150.3 to 150.5 °C.
In the case of `CSC1Cc2c(Cl)c(C(=O)C3C(=O)CCCC3=O)cc(C)c2S1(=O)=O` (stereo not drawn) [Compound No. 43, 4-chloro-7-methyl-2-methylthio-5-(1,3-dioxocyclohex-2-yl)carbonyl-2,3-dihydrobenzothiophene 1,1-dioxide], the “Herbicidal effect Scirpus juncoides” value ([1]; application rate 100 g/ha) is reported as 5 (90% or higher (almost completely dead)), the “Herbicidal effect Scirpus juncoides” value ([1]; application rate 200 g/ha) is reported as 5 (90% or higher (almost completely dead)) and the Injury paddy rice ([2]; application rate 100 g/ha) is reported as 0. The Injury paddy rice ([2]; application rate 200 g/ha) was 0, the “Herbicidal effect Scirpus juncoides” value ([3]; application rate 100 g/ha) was 5 (90% or higher (almost completely dead)) and the “Herbicidal effect Scirpus juncoides” value ([3]; application rate 200 g/ha) was 5 (90% or higher (almost completely dead)). For the same molecule, the melting point was 195.5 to 197 °C.
For `CCSC1Cc2c(Cl)c(C(=O)C3C(=O)CCCC3=O)cc(C)c2S1(=O)=O` (stereo not drawn) [Compound No. 44, 4-chloro-7-methyl-2-ethylthio-5-(1,3-dioxocyclohex-2-yl)carbonyl-2,3-dihydrobenzothiophene 1,1-dioxide], the “Herbicidal effect Scirpus juncoides” value ([1]; application rate 100 g/ha) was 5 (90% or higher (almost completely dead)), the “Herbicidal effect Scirpus juncoides” value ([1]; application rate 200 g/ha) was 5 (90% or higher (almost completely dead)) and the Injury paddy rice ([2]; application rate 100 g/ha) was 0. For the same molecule, the Injury paddy rice ([2]; application rate 200 g/ha) was 0, the “Herbicidal effect Scirpus juncoides” value ([3]; application rate 100 g/ha) was 5 (90% or higher (almost completely dead)) and the “Herbicidal effect Scirpus juncoides” value ([3]; application rate 200 g/ha) was 5 (90% or higher (almost completely dead)). The melting point was 143.2 to 154.8 °C.
